# Key:
# neurons = assay: Cell cytotoxicity toward neurons (Hoechst 33342 staining); type: cell-based; settings: 2.5, 5 and 10 μM, n = 3
# From the text: (§1) Bioactive compounds modulating proliferation and differentiation of neural stem cells are required as chemical probes to study about mechanism of neural development or lead compounds for regenerative medicine. In order to evaluate neural differentiation-modulating activities of kakeromamide A and its analogs, we elected to perform the biological tests using the same procedure that we reported in the isolation paper (Nakamura et al., [2018]). Neural stem cells were obtained following the procedure (Nakayama and Inoue, [2006]; Iwata et al., [2016]) with modification. 2.5, 5, and 10 μM of kakeromamide A or its respective derivative was added to astrocytes or neurons. The cell cytotoxicity of kakeromamide A and its analogs toward astrocytes or neurons was carried out using Hoechst 33342 staining (Figure 7).
# (§2) Figure 7 Cytotoxicity of Kakeromamide A and Its Analogs. (A) Percentages of cell numbers calculated by Hoechst 33342 positive cells, compared to that of control, in evaluating effects of kakeromamide A and its analogs for astrocytes (n = 3, means ± S.D., *p < 0.05). (B) Percentages of cell numbers calculated by Hoechst 33342 positive cells, compared to that of control, in evaluating effects of kakeromamide A and its analogs for neurons (n = 3, means ± S.D., *p < 0.05).
# neural stem cells (NSCs) [1] = assay: NSC differentiation assay, astrocytic differentiation (GFAP immunostaining); type: cell-based; settings: 2.5, 5 and 10 μM; 72 hours in differentiation medium; anti-GFAP immunostaining, Hoechst 33342 nuclei; n = 3
# Description: (§3) Next, kakeromamide A or its respective derivative was exposed at three concentrations (2.5, 5, and 10 μM) during differentiation of neural stem cells (NSCs). The effects of kakeromamide A and its analogs on the neural differentiation into neurons or astrocytes were evaluated by using NeuO (Er et al., [2015]) a fluorescent probe which could selectively stain neurons, or immunostaining of an astrocyte marker GFAP (glial fibrillary acidic protein), respectively. The nuclei were stained by using Hoechst 33342 followed by the microscopic analysis. Their activities were determined by calculating a ratio NeuO or GFAP positive cells to whole cells and comparing with that of the control. […] Furthermore, the astrocytic or neuronal differentiation were promoted or inhibited, respectively, by treatment with four analogs of compound 1.
# (§4) V. Procedures for Biological Tests:
# (§5) Induction of neural stem cells in vitro: Neural stem cells (NSCs) were obtained following the procedure (Iwata, et al., 2016; Nakayama, et al., 2006) with modification. Embryoid bodies (EBs) were induced by hanging drop method for 72 hours using 7,500 cells per 20 µL of ESCs culturing medium without LIF. Then the EBs were cultured in non-adhesive bacterial dishes in Neuron Culture Medium (Sumitomo Bakelite, Tokyo, Japan) supplemented with 20 ng/mL rhEGF (R&D Systems, Minneapolis, MN, USA) and 20 ng/mL rhFGF-2 (R&D Systems). […]
# neural stem cells (NSCs) [2] = assay: NSC differentiation assay, neuronal differentiation (NeuO staining); type: cell-based; settings: 2.5, 5 and 10 μM, 72 hours in differentiation medium, Hoechst 33342 nuclei, n = 3
# Description: as §3, §4, §5
# astrocytes = assay: Cell cytotoxicity toward astrocytes (Hoechst 33342 staining); type: cell-based; settings: 2.5, 5 and 10 μM, n = 3
# From the text: as §1, §2
# Hela cells = settings: preliminary biological tests of the isolated natural product; ref Nakamura et al., 2018; read-out: cytotoxicity IC50 against Hela cells; cited from earlier work
# From the text: (§6) Marine cyanobacteria have been playing a pivotal role in producing structurally diversified and biologically intriguing peptides (Luesch et al., [2001]; Guzman-Martinez et al., [2007]; Zainuddin et al., [2007]). In 2018, we reported the isolation of a novel cyclopeptide, kakeromamide A (Figure 1), from the marine cyanobacterium Moorea bouillonii collected near Japan (Nakamura et al., [2018]). […] To the best of our knowledge, this is the first example of marine cyclopeptide t ...
# neural stem cells (NSCs) [3] = settings: isolated natural product; ref Nakamura et al., 2018; cited from earlier work
# From the text: as §6
substance,measurement,setting,value
Kakeromamide A,cytotoxicity toward neurons (cell number by Hoechst 33342 positive cells vs control),neurons,No significant cytotoxicity
same,astrocytic differentiation of NSCs (ratio of GFAP positive cells to whole cells vs control),neural stem cells (NSCs) [1],promoting differentiation of NSCs into astrocytes
same,neuronal differentiation of NSCs (ratio of NeuO positive cells to whole cells vs control),neural stem cells (NSCs) [2],inhibiting neuronal differentiation of NSCs
same,cytotoxicity toward astrocytes (cell number by Hoechst 33342 positive cells vs control),astrocytes,No significant cytotoxicity
same,IC50,Hela cells,10 µM
same,concentration inducing neural stem cells differentiation into astrocytes,neural stem cells (NSCs) [3],2.5 to 10 µM

# Reference: paper PMC7237762, “Total Synthesis and Biological Evaluation of Kakeromamide A and Its Analogues” (Frontiers in Chemistry, 2020)
